Laboratory results published in article doi:10.1101/2025.02.03.636334v1 (biorxiv, 2025).
Values after ≈ are worked out from the molar mass of the structure shown.

system: M. tuberculosis H37Rv; test: microbe, parasite or virus in culture; details: Mycobacterium tuberculosis, 192 h, read-out: Mtb MIC (µM)

Row | Compound | MIC
1 | O=c1[nH]c(SCc2cc(F)cc3c2OC(c2ccccc2)OC3)nc2sc3c(c12)CCCC3 (stereo not drawn) [Z13684502] | 100 µM (≈ 48.1 µg/mL)
2 | O=C(Nc1ccc(F)cc1)C(c1ccccc1)N1C(=O)NC(c2ccccc2)(c2ccccc2)C1=O (stereo not drawn) [Z14471296] | 100 µM (≈ 48 µg/mL)
3 | O=C(CN1C(=O)NC(c2ccccc2)(c2ccccc2)C1=O)NC(c1ccccc1)c1ccccc1 [Z14474580] | 100 µM (≈ 47.6 µg/mL)
4 | CC(NC(=O)CN1C(=O)NC(c2ccccc2)(c2ccccc2)C1=O)c1ccc(Cl)cc1 (stereo not drawn) [Z14475560] | 100 µM (≈ 44.8 µg/mL)
5 | O=C(COC(=O)c1cc(-c2ccccc2)nn1-c1ccccc1)NC(c1ccccc1)c1ccccc1 [Z15852380] | 100 µM (≈ 48.8 µg/mL)
6 | O=C(COC(=O)c1cc(-c2cccc3ccccc23)nc2ccccc12)Nc1cc(C(F)(F)F)ccc1N1CCOCC1 [Z18816890] | 100 µM (≈ 58.6 µg/mL)
7 | O=C1NC2(CCCC2)C(=O)N1Cc1cn(-c2ccccc2)nc1-c1ccc(Cl)cc1 [Z25701709] | 100 µM (≈ 42.1 µg/mL)
8 | Cc1cccc(-c2nn(-c3ccccc3)cc2C(=O)Oc2ccccc2-c2nc3ccccc3s2)c1 [Z26889353] | 100 µM (≈ 48.8 µg/mL)
9 | O=C(c1ccc(F)cc1)N1CCN(Cc2nc3sc4c(c3c(=O)[nH]2)CCCC4)CC1 [Z26985512] | 25 µM (≈ 10.7 µg/mL)
10 | Cc1ccc2nc(-c3ccc(NC(=O)c4cc(-c5ccccc5)nn4-c4ccccc4)cc3)sc2c1 [Z27663993] | 100 µM (≈ 48.7 µg/mL)
11 | O=C(/C=C/c1cn(-c2ccccc2)nc1-c1ccc(F)cc1)N1CCCS/C1=N\c1ccccc1 [Z27871611] | 100 µM (≈ 48.3 µg/mL)
12 | O=C(Nc1nc(-c2cccs2)cs1)c1cc(-c2ccccc2)nc2ccccc12 [Z28307167] | 100 µM (≈ 41.4 µg/mL)
13 | Cc1ccc(-c2cc(C(=O)N3CCN(Cc4nc5ccccc5s4)CC3)c3ccccc3n2)cc1 [Z28583171] | 6.2 µM (≈ 2.97 µg/mL)
14 | N#Cc1ccc(CN2CCN(C(=O)c3cc(-c4ccccc4)nn3-c3ccccc3)CC2)cc1 [Z28887309] | 50 µM (≈ 22.4 µg/mL)
15 | CC1(c2ccc3ccccc3c2)NC(=O)N(CC(=O)Nc2nc(-c3ccc4c(c3)CCC4)cs2)C1=O (stereo not drawn) [Z28888852] | 3.1 µM (≈ 1.54 µg/mL)
16 | Cc1cccc(Oc2ccc(NC(=O)c3nn(-c4ccccc4)c(=O)c4ccccc34)cc2)c1 [Z29906038] | 100 µM (≈ 44.7 µg/mL)
17 | O=C(Nc1ccc2oc3ccccc3c2c1)c1ccc(=O)n(Cc2ccccc2)n1 [Z30534850] | 100 µM (≈ 39.5 µg/mL)
18 | CCn1c2ccccc2c2cc(NC(=O)c3cc(-c4ccccc4)nc4ccccc34)ccc21 [Z30593627] | 100 µM (≈ 44.2 µg/mL)
19 | O=C(NNc1ccc(F)cc1)c1cccc(S(=O)(=O)N2CCc3ccccc3C2)c1 [Z30877419] | 100 µM (≈ 42.5 µg/mL)
20 | Cc1ccc(-c2cc(C(=O)Oc3ccc(Oc4ccccc4)cc3)c3ccccc3n2)cc1 [Z30908638] | 100 µM (≈ 43.1 µg/mL)
21 | COc1cc2c(cc1NC(=O)c1ccccc1-c1ccc(C(F)(F)F)cc1)oc1ccccc12 [Z30927947] | 100 µM (≈ 46.1 µg/mL)
22 | O=S(=O)(c1cccc(C(F)(F)F)c1)N1CCN(c2nc(-c3ccccc3)nc3ccccc23)CC1 [Z31104682] | 100 µM (≈ 49.9 µg/mL)
23 | O=C1C(=CNc2cccc(C(F)(F)F)c2)c2ccccc2C(=O)N1c1cccc(C(F)(F)F)c1 [Z31274934] | 6.2 µM (≈ 2.95 µg/mL)
24 | O=C(Nc1ccc(F)c(S(=O)(=O)Nc2cccc(C(F)(F)F)c2)c1)c1cc2ccccc2o1 [Z33249504] | 50 µM (≈ 23.9 µg/mL)
25 | CN1C(=CC=NNC(=O)c2cn(-c3ccccc3)nc2-c2ccccc2)C(C)(C)c2ccccc21 [Z44838075] | 100 µM (≈ 46.2 µg/mL)
26 | O=C(OCc1nc2sc3c(c2c(=O)[nH]1)CCCC3)c1cn(-c2ccccc2)nc1-c1ccccc1 [Z53787257] | 100 µM (≈ 48.3 µg/mL)

Row | Compound | MIC
27 | O=C(CN1C(=O)NC(c2ccccc2)(c2ccccc2)C1=O)Nc1ccccc1C(=O)NC1CCCC1 [Z54675683] | 100 µM (≈ 49.7 µg/mL)
28 | O=C(COC(=O)c1c2c(nc3ccccc13)CCN(Cc1ccccc1)C2)Nc1c(F)cccc1F [Z55704575] | 100 µM (≈ 48.8 µg/mL)
29 | Cc1nn(-c2ccccc2)c2sc(C(=O)N=C3N=C4C=CC(Br)=CN4Cc4ccccc43)cc12 [Z56688850] | 100 µM (≈ 52.8 µg/mL)
30 | Fc1ccccc1C1Oc2ccccc2C2CC(c3ccc(-c4ccccc4)cc3)=NN21 (stereo not drawn) [Z56764284] | 100 µM (≈ 42 µg/mL)
31 | Fc1ccc(C2Oc3ccccc3C3CC(c4ccc(-c5ccccc5)cc4)=NN32)cc1 (stereo not drawn) [Z56765649] | 25 µM (≈ 10.5 µg/mL)
32 | O=C(N=C1N=C2C=CC=CN2Cc2ccccc21)c1cn(-c2ccccc2)nc1-c1ccc(F)cc1 [Z56787786] | 100 µM (≈ 47.4 µg/mL)
33 | Cc1cc(NC(=O)c2cc(-c3ccc(Cl)cc3)nc3ccccc23)n(-c2ccccn2)n1 [Z56802924] | 100 µM (≈ 44 µg/mL)
34 | Cc1ccc(-c2nn(-c3ccccc3)cc2CCC(=O)Nc2cccc3ccccc23)cc1 [Z56806542] | 100 µM (≈ 43.2 µg/mL)
35 | Cc1ccc2nc(-c3ccc(NC(=O)c4cccc(S(=O)(=O)Nc5cccc(C(F)(F)F)c5)c4)cc3)sc2c1 [Z56810513] | 6.2 µM (≈ 3.52 µg/mL)
36 | Nc1c(-c2ccccc2)c(CN2CCN(c3ccccc3F)CC2)nn1-c1ccc(F)cc1 [Z56903079] | 25 µM (≈ 11.1 µg/mL)
37 | Cc1ccc(-c2cn3c(C(=S)Nc4ccc(F)cc4)c(-c4ccccc4)c4c3n2CCCC4)cc1 [Z57009953] | 100 µM (≈ 48 µg/mL)
38 | O=C(N[C@@H](Cc1ccccc1)c1nc2ccccc2[nH]1)c1ccc(-c2cccc(C(F)(F)F)c2)o1 [Z57992786] | 100 µM (≈ 47.5 µg/mL)
39 | O=C(CN1CCCC1c1ccc2c(c1)OCCCO2)Nc1ccccc1Cc1ccccc1 (stereo not drawn) [Z65195872] | 50 µM (≈ 22.1 µg/mL)
40 | O=C(CN1C(=O)NC2(CCc3ccccc32)C1=O)NC(c1ccccc1)c1ccc(Cl)cc1 (stereo not drawn) [Z65674656] | 100 µM (≈ 46 µg/mL)
41 | Cc1ccc(-c2cc(C(=O)N3CCN(Cc4ccncc4)CC3)c3ccccc3n2)cc1 [Z70806128] | 100 µM (≈ 42.3 µg/mL)
42 | O=C(Nc1ccc(-n2cnc3ccccc32)cc1)c1nn(-c2ccccc2)c(=O)c2ccccc12 [Z82203216] | 100 µM (≈ 45.7 µg/mL)
43 | O=C(Nc1cn(-c2ccccc2)nc1-c1ccc(F)cc1)Nc1cccc2ccccc12 [Z85924883] | 100 µM (≈ 42.2 µg/mL)
44 | O=C(CN1C(=O)NC2(CCc3ccccc32)C1=O)c1c(-c2ccc(F)cc2)[nH]c2ccccc12 (stereo not drawn) [Z89714290] | 25 µM (≈ 11.3 µg/mL)
45 | O=C(CN1C(=O)NC2(CCOc3ccccc32)C1=O)c1c(-c2ccc(F)cc2)[nH]c2ccccc12 (stereo not drawn) [Z89763517] | 3.1 µM (≈ 1.46 µg/mL)
46 | Cc1ccc(-c2nn(Cc3ccccc3)cc2C2NC(=O)c3ccccc3N2)cc1 (stereo not drawn) [Z94792468] | 100 µM (≈ 39.4 µg/mL)
47 | O=C(Nc1ccc2c(c1)OCO2)C1CCN(C(=O)c2nn(-c3ccccc3)c(=O)c3ccccc23)CC1 [Z99494278] | 100 µM (≈ 49.7 µg/mL)
48 | Cc1ccc(-c2cc(C(=O)N3CCC(C(=O)Nc4ccc5c(c4)OCO5)CC3)c3ccccc3n2)o1 [Z99494285] | 100 µM (≈ 48.4 µg/mL)
49 | O=C(c1nn(Cc2ccccc2)c(=O)c2ccccc12)N1CCN(Cc2ccc3c(c2)CCO3)CC1 [Z102666506] | 100 µM (≈ 48.1 µg/mL)
50 | O=C(c1ccc2noc(-c3ccccc3)c2c1)N1CCN(Cc2ccc3c(c2)CCO3)CC1 [Z102669950] | 100 µM (≈ 44 µg/mL)
51 | O=c1[nH]c(CN2CCN(C(c3ccc(F)cc3)c3ccc(F)cc3)CC2)nc2sc3c(c12)CCC3 [Z105382408] | 100 µM (≈ 49.3 µg/mL)
52 | c1cncc(-c2nc(N3CCN(Cc4ccc5c(c4)CCO5)CC3)c3ccccc3n2)c1 [Z128095220] | 25 µM (≈ 10.6 µg/mL)

Row | Compound | MIC
53 | O=C(NN1C(=O)NC(c2ccccc2)(c2ccccc2)C1=O)c1ccc(-c2ccccc2F)o1 [Z137249014] | 100 µM (≈ 45.5 µg/mL)
54 | O=C(CCc1nc2c(cnn2-c2ccccc2)c(=O)[nH]1)N1CCCC1c1ccc2c(c1)OCCCO2 (stereo not drawn) [Z140090268] | 100 µM (≈ 48.6 µg/mL)
55 | NC(=O)C1Cc2ccccc2CN1C(=O)CCc1c(-c2ccc(F)cc2)[nH]c2ccccc12 (stereo not drawn) [Z143202488] | 100 µM (≈ 44.2 µg/mL)
56 | O=c1[nH]c(SCc2cn(-c3ccccc3)nc2-c2ccccc2)nc2c1cnn2-c1ccccc1 [Z150144208] | 3.1 µM (≈ 1.48 µg/mL)
57 | O=C(c1nn(-c2ccccc2)c(=O)c2ccccc12)N1CCCN(Cc2ccc(Cl)cc2)CC1 [Z212593638] | 50 µM (≈ 23.6 µg/mL)
58 | O=C(Cn1c2ccccc2c(=O)c2ccccc21)NC(c1ccccc1)c1cc2ccccc2o1 (stereo not drawn) [Z229616646] | 100 µM (≈ 45.9 µg/mL)
59 | c1cncc(-c2nc(N3CCN(Cc4ccc5ccccc5c4)CC3)c3ccccc3n2)c1 [Z237483836] | 100 µM (≈ 43.2 µg/mL)
60 | O=C(CCc1ccc(-c2ccccc2)o1)N1CCN(c2ccnc3cc(Cl)ccc23)CC1 [Z285125220] | 100 µM (≈ 44.6 µg/mL)
61 | Cc1ccc(-c2ccsc2C(=O)NNS(=O)(=O)c2ccc3oc(=O)ccc3c2)cc1 [Z299677296] | 100 µM (≈ 44.1 µg/mL)
62 | O=C(CN1CCN(C(=O)c2cccc3ccccc23)CC1)Nc1ccccc1Cc1ccccc1 [Z316384350] | 25 µM (≈ 11.6 µg/mL)
63 | Nc1nn(C(=O)c2cc(S(=O)(=O)Nc3cccc(C(F)(F)F)c3)ccc2Cl)c2ccccc12 [Z381337772] | 100 µM (≈ 49.5 µg/mL)
64 | O=C(c1ccccc1)C1CCN(C2c3ccccc3-c3ccccc32)CC1 [Z646019388] | 100 µM (≈ 35.3 µg/mL)
65 | O=C(NCc1ccccc1)c1ccc(Oc2nc(-c3ccccc3)cc(-c3ccccc3)n2)cc1 [Z1037335532] | 100 µM (≈ 45.8 µg/mL)
66 | c1ccc(-c2ccc(Oc3nc(-c4ccccc4)cc(-c4ccccc4)n3)cc2)cc1 [Z1037335802] | 100 µM (≈ 40 µg/mL)
67 | c1ccc(C(c2ccccc2)N2CCN(c3nc4ccccc4c4nc(-c5cccnc5)nn34)CC2)cc1 [Z1157836627] | 100 µM (≈ 49.8 µg/mL)
68 | Clc1ccc(-c2nc(NN=Cc3ccc4ccccc4n3)nc3ccccc23)cc1 [Z1187818773] | 100 µM (≈ 41 µg/mL)
69 | O=C(c1ccccc1)c1ccc(Cl)cc1Nc1cc(-c2ccccc2)c2ccc(Cl)cc2n1 [Z1386458621] | 100 µM (≈ 46.9 µg/mL)
70 | Cc1ccc2c(-c3ccccc3)nc(NN=Cc3c[nH]c4ccccc34)nc2c1 [Z1409330734] | 50 µM (≈ 18.9 µg/mL)
71 | Clc1ccc2nc(N3N=C(c4ccccc4)CC3c3cccc(Br)c3)nc(-c3ccccc3)c2c1 (stereo not drawn) [Z1558470019] | 100 µM (≈ 54 µg/mL)
72 | Cc1ccc(-c2nc(N3N=C(c4cccc(Br)c4)CC3c3cccc(Br)c3)nc3ccccc23)cc1 (stereo not drawn) [Z1558581154] | 100 µM (≈ 59.8 µg/mL)
73 | Cc1cccc(C2CC(c3ccc(N(C)C)cc3)=NN2c2nc(-c3ccc(Cl)cc3)c3ccccc3n2)c1 (stereo not drawn) [Z1898794184] | 100 µM (≈ 51.8 µg/mL)
74 | Oc1nc2cc(Cl)ccc2c(-c2ccccc2)c1-c1cc(-c2ccccc2)c2ccc(Cl)cc2n1 [Z2010009645] | 100 µM (≈ 49.3 µg/mL)
75 | Clc1ccc2c(-c3ccccc3)cc(-c3c(Cl)nc4ccc(Br)cc4c3-c3ccccc3)nc2c1 [Z2039275273] | 100 µM (≈ 55.6 µg/mL)
76 | O=C1c2ccccc2C(=O)N1C(Cc1ccccc1)c1nc2c3ccccc3ncn2n1 (stereo not drawn) [Z2176371175] | 100 µM (≈ 41.9 µg/mL)
77 | O=C(c1ccccc1)c1ccc(Cl)cc1Nc1cc(-c2ccccc2)c2cc(Cl)ccc2n1 [Z2196034878] | 100 µM (≈ 46.9 µg/mL)
78 | Cc1ccc2c(-c3ccccc3)nc(NN=Cc3cnc4ccccc4n3)nc2c1 [Z2488926519] | 100 µM (≈ 39 µg/mL)
